Measured values taken from patent US7807678B2, “Peptidomimetics of biologically active metallopeptides” (Palatin Technologies, Inc., priority 2001, dated 2010).
Like-named read-outs stand apart in the source and are kept apart here.

Assays:
[1] = biological target: T1, MC1-R (B-16 mouse melanoma cells) (Mus musculus, UniProt Q01727); assay: Competitive inhibition binding assay, 125I-NDP-α-MSH, MC1-R; details: 1 μM compound; inhibition of 125I-NDP-α-MSH binding; mean of triplicates; results less than 0% reported as 0%
T1 construct: B-16 mouse melanoma cells (containing MC1-R); endogenous in cells; host or cells: B-16 mouse melanoma cells
T1 sequence (Q01727 whole entry): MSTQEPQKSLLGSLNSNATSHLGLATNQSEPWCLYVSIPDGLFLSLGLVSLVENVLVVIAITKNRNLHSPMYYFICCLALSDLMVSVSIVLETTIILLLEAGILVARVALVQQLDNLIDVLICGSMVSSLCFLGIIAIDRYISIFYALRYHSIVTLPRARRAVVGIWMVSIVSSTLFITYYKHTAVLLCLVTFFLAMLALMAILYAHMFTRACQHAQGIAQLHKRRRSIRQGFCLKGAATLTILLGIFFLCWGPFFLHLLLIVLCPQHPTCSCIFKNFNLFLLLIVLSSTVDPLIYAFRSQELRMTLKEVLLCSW
Method in brief: (§1)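 Membranes from hMC3-R, hMC4-R or hMC5-R cells, or B-16 mouse melanoma cells (MC1-R), were incubated 90 min at room temperature with 0.4 nM 125I-NDP-α-MSH in HEPES pH 7.2 with Mg2+/Ca2+/K+, and test compound generally at 1 μM. Filter-bound radioactivity was gamma counted. Specific binding was defined with 1 μM α-MSH; triplicate means.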

[2] = biological target: T1, MC1-R (B-16 mouse melanoma cells); assay: cAMP assay for agonist/antagonist status, MC1-R; assay type: cell-based
Method: (§2) The Ki (nM) of certain peptidomimetics were determined, as was the agonist/antagonist status with respect to MC4-R, Functional evaluation of compounds at melanocortin receptors was performed by measuring the accumulation of intracellular cAMP in HEK-293 cells expressing MC3-R, MC4-R or MC5-R, and in B-16 mouse melanoma cells (containing MC1-R). Antagonistic activity was determined by measuring the inhibition of α-MSH-induced cAMP levels following exposure to the compounds. Cells, suspended in Earle's Balanced Salt Solution containing 10 mM HEPES, pH 7.5, 5 mM MgCl2, 1 mM glutamine, 0.1% albumin and 0.6 mM 3-isobutyl-1-methyl-xanthine, a phosphodiesterase inhibitor, were plated in 96 well plates at a density of 0.5×10^5 cells per well. Cells were incubated with the test compounds in the presence or absence of α-MSH for 1 hour at 37° C. cAMP levels were measured by EIA (Amersham) in the cell lysates. Data analysis and EC50 values were determined using nonlinear regression analysis with Prism Graph-Pad software.

MC4-R (HEK-293 cells) = biological target: T2, MC4-R (HEK-293 cells) (Homo sapiens, UniProt P32245); assay: cAMP assay for agonist/antagonist status, MC4-R; assay type: cell-based
T2 construct: expressed in transfected cells; host or cells: HEK-293
T2 sequence (P32245 whole entry): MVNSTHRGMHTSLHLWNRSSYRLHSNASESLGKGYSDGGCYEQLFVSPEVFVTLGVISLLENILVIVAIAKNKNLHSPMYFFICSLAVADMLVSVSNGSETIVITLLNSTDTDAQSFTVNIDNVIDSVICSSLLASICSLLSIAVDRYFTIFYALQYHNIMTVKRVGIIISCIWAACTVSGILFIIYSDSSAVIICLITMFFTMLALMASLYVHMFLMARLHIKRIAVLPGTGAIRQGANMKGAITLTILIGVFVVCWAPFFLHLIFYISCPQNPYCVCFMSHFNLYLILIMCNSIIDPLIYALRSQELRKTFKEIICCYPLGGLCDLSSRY
Method: as §2

MC5-R (HEK-293 cells) = biological target: T3, MC5-R (HEK-293 cells) (Homo sapiens, UniProt P33032); assay: cAMP assay for agonist/antagonist status, MC5-R; assay type: cell-based
T3 construct: expressed in transfected cells; host or cells: HEK-293
T3 sequence (P33032 whole entry): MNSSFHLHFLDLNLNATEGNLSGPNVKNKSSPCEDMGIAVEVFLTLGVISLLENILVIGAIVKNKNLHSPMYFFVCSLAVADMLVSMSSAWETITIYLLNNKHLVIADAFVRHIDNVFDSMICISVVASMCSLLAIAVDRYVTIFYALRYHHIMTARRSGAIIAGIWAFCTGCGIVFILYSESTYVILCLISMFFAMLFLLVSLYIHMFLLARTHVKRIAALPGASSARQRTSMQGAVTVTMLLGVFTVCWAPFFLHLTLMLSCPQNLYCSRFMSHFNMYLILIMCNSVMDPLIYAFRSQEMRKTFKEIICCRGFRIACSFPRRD
Method: as §2

MC3-R [3] = biological target: T4, MC3-R (Homo sapiens, UniProt P41968); assay: Competitive inhibition binding assay, 125I-NDP-α-MSH, MC3-R; set-up: expressed in transfected cells; details: 1 μM compound; inhibition of 125I-NDP-α-MSH binding; mean of triplicates; results less than 0% reported as 0%
T4 sequence (P41968 whole entry): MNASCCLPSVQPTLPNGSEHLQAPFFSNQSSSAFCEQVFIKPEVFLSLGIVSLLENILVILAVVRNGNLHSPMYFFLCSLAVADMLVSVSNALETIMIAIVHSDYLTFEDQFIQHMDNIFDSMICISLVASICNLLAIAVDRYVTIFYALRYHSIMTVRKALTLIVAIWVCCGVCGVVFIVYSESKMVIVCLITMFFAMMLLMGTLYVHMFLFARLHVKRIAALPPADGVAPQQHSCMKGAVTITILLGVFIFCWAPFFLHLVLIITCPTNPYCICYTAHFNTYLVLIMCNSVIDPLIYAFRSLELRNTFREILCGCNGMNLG
Method in brief: as §1

MC4-R [4] = biological target: T5, MC4-R (Homo sapiens, UniProt P32245); assay: Competitive inhibition binding assay, 125I-NDP-α-MSH, MC4-R; set-up: expressed in transfected cells; details: 1 μM compound; inhibition of 125I-NDP-α-MSH binding; mean of triplicates; results less than 0% reported as 0%
T5 sequence (P32245 whole entry): as the sequence (P32245 whole entry) above
Method in brief: as §1

MC5-R [5] = biological target: T6, MC5-R (Homo sapiens, UniProt P33032); assay: Competitive inhibition binding assay, 125I-NDP-α-MSH, MC5-R; set-up: expressed in transfected cells; details: 1 μM compound; inhibition of 125I-NDP-α-MSH binding; mean of triplicates; results less than 0% reported as 0%
T6 sequence (P33032 whole entry): as the sequence (P33032 whole entry) above
Method in brief: as §1

[6] = biological target: T1, MC1-R (B-16 mouse melanoma cells); assay: Ki determination by the method of Example 4, MC1-R; assay type: binding
Method: as §2

MC3-R [7] = biological target: T4, MC3-R; assay: Ki determination by the method of Example 4, MC3-R; assay type: binding; set-up: expressed in transfected cells; host or cells: HEK-293; details: bound in μM; read-out: Ki MC3-R
Method: as §2

MC4-R [8] = biological target: T5, MC4-R; assay: Ki determination by the method of Example 4, MC4-R; assay type: binding; set-up: expressed in transfected cells; host or cells: HEK-293
Method: as §2

MC5-R [9] = biological target: T6, MC5-R; assay: Ki determination by the method of Example 4, MC5-R; assay type: binding; set-up: expressed in transfected cells; host or cells: HEK-293
Method: as §2

[10] = bound in μM, read-out: Ki MC1-R
[11] = bound in μM, read-out: Ki MC4-R
[12] = bound in μM, read-out: Ki MC5-R

## NCCCC[C@H]1C(=O)N(CCc2ccc3ccccc3c2)CCN1C(=O)[C@@H](Cc1ccc(Cl)cc1Cl)NC(=O)[C@@H]1C[C@@H](OCc2ccccc2)CN1 [Example 25]
[1]
  Inhibition at 1 μM MC1-R: 21%
[2]
  agonist/antagonist status as to MC1-R: agonist
MC4-R (HEK-293 cells)
  agonist/antagonist status as to MC4-R: agonist
MC5-R (HEK-293 cells)
  agonist/antagonist status as to MC5-R: agonist
MC3-R [3]
  Inhibition at 1 μM MC3-R: 61%
MC4-R [4]
  Inhibition at 1 μM MC4-R: 100%
MC5-R [5]
  Inhibition at 1 μM MC5-R: 83%

## NCCCNC(=O)[C@@H]1C[C@@H](OCc2ccccc2)CN1C(=O)[C@@H](Cc1ccccc1)NC(=O)[C@H]1Cc2ccccc2CN1 [Example 148]
[6]; [10]
  Ki: > 1 µM
MC3-R [7]
  Ki: > 1 µM
MC4-R [8]; [11]
  Ki: > 1 µM
MC5-R [9]; [12]
  Ki: > 1 µM

## NCCCC[C@H]1C(=O)N(CCc2ccc3ccccc3c2)CCN1C(=O)[C@@H](Cc1ccc(Cl)cc1Cl)NCCOCc1ccccc1 [Example 40]
[1]
  Inhibition at 1 μM MC1-R: 27%
[2]
  agonist/antagonist status as to MC1-R: antagonist
MC4-R (HEK-293 cells)
  agonist/antagonist status as to MC4-R: antagonist
MC5-R (HEK-293 cells)
  agonist/antagonist status as to MC5-R: agonist
MC3-R [3]
  Inhibition at 1 μM MC3-R: 17%
MC4-R [4]
  Inhibition at 1 μM MC4-R: 91%
MC5-R [5]
  Inhibition at 1 μM MC5-R: 30%

## N=C(N)NCCCC1C(=O)N2C(COc3ccc4ccccc4c3)CCC2N1C(=O)C(Cc1ccccc1Cl)NC(=O)C(N)COCc1ccccc1 (stereo not shown) [Example 99]
MC3-R [7]
  Ki: > 1 µM

## N=C(N)NCCC[C@H]1C(=O)N(CCc2ccc3ccccc3c2)CCN1C(=O)[C@@H](Cc1ccc(Cl)cc1Cl)NC(=O)[C@@H](N)COCc1ccccc1 [Example 53]
[1]
  Inhibition at 1 μM MC1-R: 81%
[2]
  agonist/antagonist status as to MC1-R: agonist
MC4-R (HEK-293 cells)
  agonist/antagonist status as to MC4-R: agonist
MC5-R (HEK-293 cells)
  agonist/antagonist status as to MC5-R: agonist
MC3-R [3]
  Inhibition at 1 μM MC3-R: 93%
MC4-R [4]
  Inhibition at 1 μM MC4-R: 99%
MC5-R [5]
  Inhibition at 1 μM MC5-R: 96%

## N=C(N)NCCC[C@H]1C(=O)N2C(CC[C@@H]2COc2ccc3ccccc3c2)N1C(=O)[C@@H](Cc1ccc(Cl)cc1Cl)NC(=O)[C@@H]1C[C@@H](OCc2ccccc2)CN1 (stereo partly shown) [Example 113]
[1]
  Inhibition at 1 μM MC1-R: 53%
[2]
  agonist/antagonist status as to MC1-R: agonist
MC4-R (HEK-293 cells)
  agonist/antagonist status as to MC4-R: antagonist
MC5-R (HEK-293 cells)
  agonist/antagonist status as to MC5-R: agonist
MC3-R [3]
  Inhibition at 1 μM MC3-R: 84%
MC4-R [4]
  Inhibition at 1 μM MC4-R: 100%
MC5-R [5]
  Inhibition at 1 μM MC5-R: 100%

## NC(=O)NCCC[C@H]1C(=O)N(CCc2ccc3ccccc3c2)CCN1C(=O)[C@@H](Cc1ccc(Cl)cc1Cl)NC(=O)[C@@H](N)COCc1ccccc1 [Example 44]
[1]
  Inhibition at 1 μM MC1-R: 8%
[2]
  agonist/antagonist status as to MC1-R: agonist
MC4-R (HEK-293 cells)
  agonist/antagonist status as to MC4-R: agonist
MC5-R (HEK-293 cells)
  agonist/antagonist status as to MC5-R: agonist
MC3-R [3]
  Inhibition at 1 μM MC3-R: 43%
MC4-R [4]
  Inhibition at 1 μM MC4-R: 94%
MC5-R [5]
  Inhibition at 1 μM MC5-R: 66%

## NCCCC[C@H]1C(=O)N(CCc2ccc3ccccc3c2)CCN1C(=O)[C@@H](Cc1ccc(Cl)cc1Cl)NC(=O)[C@H]1CC[C@@H](c2ccccc2)N1 [Example 27]
[1]
  Inhibition at 1 μM MC1-R: 0%
[2]
  agonist/antagonist status as to MC1-R: agonist
MC4-R (HEK-293 cells)
  agonist/antagonist status as to MC4-R: agonist
MC5-R (HEK-293 cells)
  agonist/antagonist status as to MC5-R: agonist
MC3-R [3]
  Inhibition at 1 μM MC3-R: 9%
MC4-R [4]
  Inhibition at 1 μM MC4-R: 71%
MC5-R [5]
  Inhibition at 1 μM MC5-R: 46%

## N=C(N)NCCCC1C(=O)N2C(COc3ccc4ccccc4c3)CCC2N1C(=O)C(Cc1ccccc1)NC(=O)C(N)Cc1cnc[nH]1 (stereo not shown) [Example 97]
[6]; read-out: Ki (nM) MC1-R
  Ki: 0.001 µM
MC3-R [7]
  Ki: > 1 µM
MC4-R [8]; read-out: Ki (nM) MC4-R
  Ki: 0.226 µM
MC5-R [9]; [12]
  Ki: > 1 µM

## NCCCNC(=O)C1CC(OCc2ccccc2)CN1C(=O)C(Cc1ccc(Cl)cc1)NC(=O)C1Cc2ccccc2CN1 (stereo not shown) [Example 145]
[6]; [10]
  Ki: > 1 µM
MC3-R [7]
  Ki: > 1 µM
MC4-R [8]; [11]
  Ki: > 1 µM

## NCCCC[C@H]1C(=O)N(CCc2ccc3ccccc3c2)CCN1C(=O)[C@@H](Cc1ccc(Cl)cc1Cl)NC(=O)[C@@H]1CC[C@H](c2ccccc2)N1 [Example 26]
[6]; [10]
  Ki: > 1 µM
MC3-R [7]
  Ki: > 1 µM
MC4-R [8]; read-out: Ki (nM) MC4-R
  Ki: 0.05 µM
MC5-R [9]; read-out: Ki (nM) MC5-R
  Ki: 0.789 µM
